Experiments:
[1] = test system: midcycle gonadotropin surge; details: cited from earlier work
premature LH-surge = experiment: Open-label uncontrolled clinical trial of premature LH-surge prevention in COH with IVF and embryo transfer; type: in vivo, human; details: for prevention of premature LH-rises (above levels of 10 IU/L): day 6 of recombinant FSH treatment until day of hCG treatment
Procedure: An open-label, uncontrolled clinical trial is performed to investigate the efficacy, safety, and tolerability of premature LH-surge prevention in 30 female subjects undergoing COH and subsequent IVF and embryo transfer (ET), using a daily oral dosage of 40 mg mifepristone from day 6 of recombinant FSH treatment up to and including the day of hCG treatment and thrice daily intravaginal progesterone supplementation with 200 mg starting immediately after the hCG treatment for a period of up to 12 weeks. Although this treatment is suitable for all types of IVF patients (e.g. within the age range 18 to 45 years, with or without displaying polycystic ovarian syndrome and with or without a regular cycle), the following selection criteria are set forth in the investigation: healthy female partners of infertile couples; age at the time of screening between 20 and 39 years; a body mass index (BMI) between 19 and 29 kg/m^2; a regular menstrual cycle, and willing to give a written informed consent. Prior to the first administration of recombinant FSH a blood sample is taken for hormone analysis (estradiol and LH) and a standard urinary hCG assay is performed to exclude pregnancy. Recombinant FSH treatment is started at day 2 or 3 of menses onwards by a daily subcutaneous injection until the day of hCG administration. During the first 5 days of recombinant FSH treatment the dose is fixed at 150 IU. Starting at day 6, blood samples for hormone analysis are taken every two days prior to drug administration and ultrasonographic monitoring of follicle growth is performed to adjust, if necessary, the daily injectable dose of recombinant FSH. A subcutaneous injection with urinary hCG (5.000 IU) and an intramuscular injection of 50 mg progesterone are administered simultaneously, when at least three follicles exceed a diameter of 17 mm as measured by ultrasound scan and subsequently oocyte retrieval is performed 30-38 hours later. Using the procedure as set forth in example 1, with the proviso that, instead of using a daily dose of 40 mg mifepristone, mifepristone is used at a daily dose of 20 mg, a similar clinical outcome is obtained at a lower anti-P exposure level in the female subjects. […] Using the procedure as set forth in example 1, with the proviso that, instead of using a daily dose of 40 mg mifepristone, mifepristone is used at a daily dose of 10 mg, a similar clinical outcome is obtained at a lower anti-P exposure level in the female subjects.

folliculogenesis = details: 50 mg/day tablets from cycle day 2 until hCG injection, with recombinant FSH; cited from earlier work
endometrium = experiment: Controlled clinical study of endometrial receptivity in oocyte donors undergoing COH (glandular dating, pinopodes); type: in vivo, human; details: endometrial biopsy day 7 after hCG injection
Procedure: An open-label, randomized and controlled clinical study is performed in oocyte donors undergoing COH and in whom premature LH-surges are prevented by either standard GnRH agonist treatment (5 oocyte donors) or mifepristone treatment (5 oocyte donors) with the objective to compare endometrial receptivity. In women treated with 40 mg orally administered mifepristone, the procedure as set forth in example 1 is used, with the proviso that instead of administering progesterone for 12 weeks, daily intravaginal progesterone supplementation with 400 mg is started immediately after the hCG treatment and continued until the day of endometrial biopsy (day 7 after hCG injection in donors). To oocyte donors in the reference group, undergoing COH and receiving GnRH agonist, treatment with GnRH agonist is started in the midluteal phase of the preceding menstrual cycle and given concomitantly with recombinant FSH from day 2 or 3 of the COH cycle up to and including the day of hCG treatment Vaginal progesterone supplementation is started in the GnRH-treated oocyte donors directly after oocyte retrieval (36-38 hours after hCG injection) and continued until the day of endometrial biopsy (day 7 after hCG injection). Endometrial samples are taken from all oocyte donors. […]

endogenous LH surge = experiment: Clinical investigation: intramuscular progesterone instead of hCG to allow an endogenous LH surge in COH; type: in vivo, human
Procedure: An open-label, uncontrolled clinical investigation is performed in 5 healthy female volunteers undergoing COH and subsequent IVF and ET, using the procedure as set forth in example 1, with the proviso that in stead of administering hCG a single intramuscular injection of 50 mg progesterone is administered to allow an endogenous LH surge to occur, inducing resumption of meiosis and luteinisation.

uterine contractility = details: vaginal administration starting on the day of oocyte retrieval, compared with preovulatory values; cited from earlier work

SMILES	timing of the midcycle gonadotropin surge and collapse of the dominant follicle ([1]; 1 mg/day for 5 or 15 days, starting when dominant follicle reached 14-16 mm)	emergence of periovulatory progesterone rise ([1]; 1 mg/day for 5 or 15 days)	tolerability and adverse effects (premature LH-surge; 10 mg daily oral)	prevention of premature LH-rises (above levels of 10 IU/L) (premature LH-surge; 10 mg daily oral)	tolerability and adverse effects (premature LH-surge; 20 mg daily oral)	prevention of premature LH-rises (above levels of 10 IU/L) (premature LH-surge; 20 mg daily oral)	tolerability and adverse effects (premature LH-surge; 40 mg daily oral)	prevention of premature LH-rises (above levels of 10 IU/L) (premature LH-surge; 40 mg daily oral)	effect on follicular development (folliculogenesis)	occurrence of LH-surges prior to hCG injection (folliculogenesis)	endometrial glandular dating (endometrium; hematoxylin and eosin staining)	presence of pinopodes (endometrium; scanning electron microscopy)	LH and FSH surges when added to RU486 ([1]; 5-10 mg/day, im, for 2 days, added to a 5-day course of RU486)	oocyte quality at harvest (endogenous LH surge; harvested at 36-3836 hours after starting progesterone treatment)	occurrence of endogenous LH-surges (endogenous LH surge; single intramuscular injection of 50 mg, after 40 mg mifepristone COH procedure)	uterine contraction frequency on the day of embryo transfer (uterine contractility)
CC#C[C@]1(O)CC[C@H]2[C@@H]3CCC4=CC(=O)CCC4=C3[C@@H](c3ccc(N(C)C)cc3)C[C@@]21C [mifepristone]	consistently delayed	delayed the emergence of periovulatory progesterone rise	well tolerated and shows no adverse effects	efficacious in preventing premature LH-rises	well tolerated and shows no adverse effects	efficacious in preventing premature LH-rises	well tolerated and shows no adverse effects	efficacious in preventing premature LH-rises	arrests follicular development by delaying the growth of the dominant follicle	may prevent the occurrence of LH-surges	typically in-phase glandular dating is observed	pinopodes are readily visible				
CC(=O)[C@H]1CC[C@H]2[C@@H]3CCC4=CC(=O)CC[C@]4(C)[C@H]3CC[C@]12C [progesterone]													readily induced LH and FSH surges and completely reversed the effects of RU486 at midcycle	retrieval of good quality oocytes	efficacious in allowing endogenous LH-surges to occur	induced a decrease in uterine contraction frequency
